Test results taken from PubChem BioAssay (NCI).
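Cultured in 96-well plates, cells were exposed to test compound for 48 hours across five concentrations. TGI is the concentration that stops growth completely.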

Legend:
Assay in all cases: growth of human tumour cells (NCI), 48 h
786-0 renal = test system: 786-0 renal
A498 renal = test system: A498 renal
A549 NSCLC = test system: A549 NSCLC
ACHN renal = test system: ACHN renal
BT-549 breast = test system: BT-549 breast
CAKI-1 renal = test system: CAKI-1 renal
CCRF-CEM leukemia = test system: CCRF-CEM leukemia
COLO 205 colon = test system: COLO 205 colon
DU-145 prostate = test system: DU-145 prostate
EKVX NSCLC = test system: EKVX NSCLC
HCC-2998 colon = test system: HCC-2998 colon
HCT-116 colon = test system: HCT-116 colon
HCT-15 colon = test system: HCT-15 colon
HL-60(TB) leukemia = test system: HL-60(TB) leukemia
HOP-62 NSCLC = test system: HOP-62 NSCLC
HOP-92 NSCLC = test system: HOP-92 NSCLC
HS 578T breast = test system: HS 578T breast
HT29 colon = test system: HT29 colon
IGROV1 ovarian = test system: IGROV1 ovarian
K-562 leukemia = test system: K-562 leukemia
KM12 colon = test system: KM12 colon
LOX IMVI melanoma = test system: LOX IMVI melanoma
MALME-3M melanoma = test system: MALME-3M melanoma
MCF7 breast = test system: MCF7 breast
MDA-MB-231 breast = test system: MDA-MB-231 breast
MDA-MB-435 = test system: MDA-MB-435
MDA-N = test system: MDA-N
MOLT-4 leukemia = test system: MOLT-4 leukemia
NCI-H226 lung = test system: NCI-H226 lung
NCI-H23 lung = test system: NCI-H23 lung
NCI-H460 lung = test system: NCI-H460 lung
NCI-H522 lung = test system: NCI-H522 lung
NCI/ADR-RES ovarian = test system: NCI/ADR-RES ovarian
OVCAR-3 ovarian = test system: OVCAR-3 ovarian
OVCAR-4 ovarian = test system: OVCAR-4 ovarian
OVCAR-5 ovarian = test system: OVCAR-5 ovarian
OVCAR-8 ovarian = test system: OVCAR-8 ovarian
PC-3 prostate = test system: PC-3 prostate
RPMI-8226 leukemia = test system: RPMI-8226 leukemia
RXF 393 renal = test system: RXF 393 renal
SF-268 CNS = test system: SF-268 CNS
SF-295 CNS = test system: SF-295 CNS
SF-539 CNS = test system: SF-539 CNS
SK-MEL-28 melanoma = test system: SK-MEL-28 melanoma
SK-MEL-5 melanoma = test system: SK-MEL-5 melanoma
SN12C renal = test system: SN12C renal
SNB-19 CNS = test system: SNB-19 CNS
SNB-75 CNS = test system: SNB-75 CNS
SR leukemia = test system: SR leukemia
SW-620 colon = test system: SW-620 colon
TK-10 renal = test system: TK-10 renal
U251 CNS = test system: U251 CNS
UACC-257 melanoma = test system: UACC-257 melanoma
UO-31 renal = test system: UO-31 renal

Measured: TGI

CC(C)(C)OC(=O)NC(CSCc1ccc(C(=O)c2ccccc2)cc1)C(=O)O (centres undefined)
> 100 µM: all assays above
